Laboratory results published in patent US20210196724A1, “BIARYL COMPOSITIONS AND METHODS FOR MODULATING A KINASE CASCADE” (Athenex, Inc., priority 2016, published 2021).
Read-outs that look alike come from different tables or passages of the source.

Key:
OVCAR-3 cells = experiment: CellTiter-Glo cell viability, OVCAR-3; type: cell-based; details: 72 h; for GI50: read-out: Absolute GI50; for IC50: read-out: Absolute IC50
Method: (§1) The cell viability of 50 cancer cell lines was studied after treatment with Compound 121. Inhibition concentration values at 50% (IC50) were determined using CellTiter-Glo luminescent cell viability assay after incubation with different compound concentrations. GI50 values were determined according to the examples described above. Each cell line was treated with Compound 121, a standard chemotherapy drug as a reference control, and culture medium as a vehicle control.
(§2) All cells were cultured in media supplemented with 10-15% FBS at 37° C. in the presence of 5% CO2 and at 95% humidity. The culture medium was purchased from GIBCO or Sigma, USA. Cisplatin was chosen as the reference control and purchased from Hospira Australia Pty Ltd. The cell lines studied are presented in Table 5.
(§3) Cells were harvested during a logarithmic growth period and cell number count was determined using Count-star. Cell concentrations were adjusted to 4.44×10^4 cells/mL with respective culture medium. 90 μL of cell suspensions were added to two 96-well plates (plates A and B) with a final cell density of 4×10^3 cells/well.
(§4) 10 μL of culture medium was added to each well of plate A for TO reading. The plate was allowed to equilibrate at room temperature for approximately 30 min. 50 μL of CellTiter-Glo was added to each well and the contents were mixed for 5 min on an orbital shaker to induce cell lysis. The plate was allowed to incubate at room temperature for 20 min to stabilize luminescent signal.
(§5) 10 μM Compound 121 in media was serially diluted 3.16-fold to achieve 9 dose levels. Similarly, 100 μM reference control in media was serially diluted 3.16-fold to prepare reference control solutions. 10 μL drug solution and 10 μL of reference control was dispensed into each well in plate B.
(§6) Test plate B was incubated for 72 h in a humidified incubator at 37° C. in the presence of 5% CO2 and then subjected to CTG assay. The plate was allowed to equilibrate at room temperature for about 30 min. 50 μL of CellTiter-Glo was added to each well and the contents were mixed for 5 min on an orbital shaker to induce cell lysis. The plate was allowed to incubate at room temperature for 20 min to stabilize luminescent signal.
(§7) IC50 and GI50 values for each of the 50 cell lines are presented in Table 6 and were calculated based on the dose-response curves depicted in FIGS. 1-50. The dose-response curves were fitted using nonlinear regression model with a sigmoidal dose response. The formula for calculating survival rate was calculated by the formula:
(§8) Survival rate (%)=(LumTest article−LumMedium control)/(LumNone treated−LumMedium control)×100.

SK-OV-3 cells = experiment: CellTiter-Glo cell viability, SK-OV-3; type: cell-based; details: 72 h; for GI50: read-out: Absolute GI50; for IC50: read-out: Absolute IC50
Method: as §1, §2, §3, §4, §5, §6, §7, §8

MDA-MB-468 cells = experiment: CellTiter-Glo cell viability, MDA-MB-468; type: cell-based; details: 72 h; for GI50: read-out: Absolute GI50; for IC50: read-out: Absolute IC50
Method: as §1, §2, §3, §4, §5, §6, §7, §8

HT-29 cells = experiment: CellTiter-Glo cell viability, HT-29; type: cell-based; details: 72 h; for GI50: read-out: Absolute GI50; for IC50: read-out: Absolute IC50
Method: as §1, §2, §3, §4, §5, §6, §7, §8

NCI-H1975 cells = experiment: CellTiter-Glo cell viability, NCI-H1975; type: cell-based; details: 72 h; for GI50: read-out: Absolute GI50; for IC50: read-out: Absolute IC50
Method: as §1, §2, §3, §4, §5, §6, §7, §8

SK-MEL-28 cells = experiment: CellTiter-Glo cell viability, SK-MEL-28; type: cell-based; details: 72 h; for GI50: read-out: Absolute GI50; for IC50: read-out: Absolute IC50
Method: as §1, §2, §3, §4, §5, §6, §7, §8

AN3 CA cells = experiment: CellTiter-Glo cell viability, AN3 CA; type: cell-based; details: 72 h; for GI50: read-out: Absolute GI50; for IC50: read-out: Absolute IC50
Method: as §1, §2, §3, §4, §5, §6, §7, §8

HuT 78 cells = experiment: CellTiter-Glo cell viability, HuT 78; type: cell-based; details: for GI50: read-out: Absolute GI50; for IC50: read-out: Absolute IC50
Method: as §1, §2, §3, §4, §5, §6, §7, §8

U87 cells = experiment: MTT cell growth inhibition (GI50), U87; type: cell-based, human; details: 3 days
Method: The drug concentration required to block net cell growth by 50% relative to a control sample is measured as the GI50. The GI50s for several of the compounds of the application were assayed as described.
MTT assay: U87 and GL261 cells were seeded in 96-well plate (6×10^3 cells in 100 μl of DMEM+10% FBS media per well) and incubated overnight at 37° C. with 5% CO2. All test compounds were diluted (10 point 2-fold serial dilution) in a separate 96-well plate to yield 10× of final concentrations (0.5-256 nM). A volume of 11 μl of 10× dilutions was added to appropriate wells (n=3). To value (reflecting the starting number of cells upon drug treatment) was determined by following steps as described below. After 3 days incubation at 37° C. with 5% CO2, 10 μl of MTT solution (5 mg/ml in PBS) was added to each well and plates were incubated at 37° C. for 3 h to allow MTT to form formazan crystals by reacting with metabolically active cells. 100 μl of 20% SDS was added to each well and plates were incubated overnight at 37° C. with 5% CO2. Afterward, OD570 was measured using microplate reader. The cell growth percentage of control was calculated according to percentage of control=(T−T0)/(C−T0)×100% or OD value of the test well exposure to test drug—OD value at time zero/(OD of the control well without drug treatment−OD value at time zero)×100%. Growth inhibition curves and GI50 were determined using GraphPad Prism 5 software.

[1] = top conc. 10 μM Compound 121, 100 μM cisplatin
[2] = Homo sapiens, top conc. 10 μM Compound 121, 100 μM cisplatin

N.N.[Cl][Pt][Cl] [Cisplatin, reference compound] was tested, and the GI50 (OVCAR-3 cells) was 3810 nM, the IC50 (OVCAR-3 cells) was 4290 nM and the “% inhibition at top conc.” value (OVCAR-3 cells; [1]) was 91.14%. For the same compound, the GI50 (SK-OV-3 cells) was 5080 nM, the IC50 (SK-OV-3 cells) was 6690 nM and the “% inhibition at top conc.” value (SK-OV-3 cells; [1]) was 81.79%. The GI50 (MDA-MB-468 cells) was 650 nM, the IC50 (MDA-MB-468 cells) was 930 nM and the “% inhibition at top conc.” value (MDA-MB-468 cells; [1]) was 99.91%. For the same compound, the GI50 (HT-29 cells) was 8780 nM, the IC50 (HT-29 cells) was 9800 nM and the “% inhibition at top conc.” value (HT-29 cells; [1]) was 89.05%. The GI50 (NCI-H1975 cells) was 5520 nM, the IC50 (NCI-H1975 cells) was 6930 nM and the “% inhibition at top conc.” value (NCI-H1975 cells; [1]) was 98.75%. For the same compound, the GI50 (SK-MEL-28 cells) was 7090 nM, the IC50 (SK-MEL-28 cells) was 8900 nM and the “% inhibition at top conc.” value (SK-MEL-28 cells; [1]) was 99.29%. For the same compound, the GI50 (AN3 CA cells) was 3680 nM, the IC50 (AN3 CA cells) was 4380 nM and the “% inhibition at top conc.” value (AN3 CA cells; [1]) was 99.95%. The GI50 (HuT 78 cells; 72 h) was 500 nM, the IC50 (HuT 78 cells; 72 h) was 660 nM and the “% inhibition at top conc.” value (HuT 78 cells; 72 h, top conc. 10 μM Compound 121, 100 μM cisplatin) was 98.27%.

Cc1cc(N2CCOC[C@@H]2C)ccc1-c1ccc(CC(=O)NCc2ccc(F)cc2)nc1 [Compound 121] gave a GI50 (U87 cells) of 5.2 nM, a GI50 (OVCAR-3 cells; Homo sapiens) of 5 nM and an IC50 (OVCAR-3 cells; Homo sapiens) of 6 nM. It also gave an inhibition at 10 µM (OVCAR-3 cells; [2]) of 64.8%, a GI50 (SK-OV-3 cells; Homo sapiens) of 4 nM and an IC50 (SK-OV-3 cells; Homo sapiens) of 4 nM. It also gave an inhibition at 10 µM (SK-OV-3 cells; [2]) of 66.2%, a GI50 (MDA-MB-468 cells; Homo sapiens) of 7 nM and an IC50 (MDA-MB-468 cells; Homo sapiens) of 9 nM. The inhibition at 10 µM (MDA-MB-468 cells; [2]) was 80%, the GI50 (HT-29 cells; Homo sapiens) was 4 nM and the IC50 (HT-29 cells; Homo sapiens) was 4 nM. It also gave an inhibition at 10 µM (HT-29 cells; [2]) of 78.5%, a GI50 (NCI-H1975 cells; Homo sapiens) of 6 nM and an IC50 (NCI-H1975 cells; Homo sapiens) of 6 nM. For the same compound, the inhibition at 10 µM (NCI-H1975 cells; [2]) was 83.7%, the GI50 (SK-MEL-28 cells; Homo sapiens) was 4 nM and the IC50 (SK-MEL-28 cells; Homo sapiens) was > 10000 nM. For the same compound, the inhibition at 10 µM (SK-MEL-28 cells; [2]) was 52.9%, the GI50 (AN3 CA cells; Homo sapiens) was 5 nM and the IC50 (AN3 CA cells; Homo sapiens) was 5 nM. For the same compound, the inhibition at 10 µM (AN3 CA cells; [2]) was 98.6%, the GI50 (HuT 78 cells; Homo sapiens, HuT78, 72 h) was 8 nM and the IC50 (HuT 78 cells; Homo sapiens, HuT78, 72 h) was 9 nM. For the same compound, the inhibition at 10 µM (HuT 78 cells; Homo sapiens, HuT78, 72 h, top conc. 10 μM Compound 121, 100 μM cisplatin) was 95.2%.
